Where a name gives a salt, the structure may show the parent alone. The source made the active and inactive calls. No cut-off for these calls is given here.
Assays:
[1] = Cytotoxicity against MDCK cells assessed as alteration in cell morphology after 72 hrs; format: cell-based, Canis lupus familiaris; settings: dog
Influenza B virus = test: Antiviral activity against Influenza B virus (B/HK/5/72) infected in MDCK cells; format: functional, cell-based; settings: B/Hong Kong/05/1972
MDCK = format: cell-based, Canis lupus familiaris; settings: dog, 72 h
[2] = target: Matrix protein 2 (Influenza A virus (A/Udorn/307/1972(H3N2)), UniProt P0DOF8); format: cell membranes, Influenza A virus (A/udorn/1972(H3N2))
[3] = target: Matrix protein 2 (Influenza A virus (A/Udorn/307/1972(H3N2))) (UniProt P0DOF8); format: cell membranes; settings: Influenza A virus (A/udorn/1972(H3N2))
Sequence of Matrix protein 2 (Influenza A virus (A/Udorn/307/1972(H3N2))) (P0DOF8 whole entry): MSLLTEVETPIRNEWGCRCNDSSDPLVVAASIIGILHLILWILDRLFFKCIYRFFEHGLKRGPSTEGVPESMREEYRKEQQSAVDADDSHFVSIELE

Sequence of Matrix protein 2 (Influenza A virus (A/Udorn/307/1972(H3N2)), UniProt P0DOF8) (P0DOF8 whole entry): as above

For `NC12CC3CC(CC(C3)C1)C2` [AMANTADINE], the MCC at 72 h [1] was at least 500 µM, the Activity (Influenza B virus) was “inactive” and the CC50 (MDCK) was over 500 µM.

With `N=C(N)N1CC2C3CCC(C4CCC43)C2C1` (stereo not given) the MCC at 72 h [1] was 4 µM, the Activity (Influenza B virus) was “inactive” and the CC50 (MDCK) was 1.9 µM.

With `CC12CC34CNCC35CC1(C)C(C)(C5)C2(C)C4` (stereo not given) the MCC at 72 h [1] was 100 µM, the Activity (Influenza B virus) was “inactive” and the CC50 (MDCK) was 49 µM.

For `N=C(N)N1CC2C3C=CC(C4CC34)C2C1` (stereo not given), the MCC at 72 h [1] was 100 µM, the Activity (Influenza B virus) was “inactive” and the IC50 [2] was 1.5 µM. The CC50 (MDCK) was 39 µM.

With `CC(N)C12CC3CC(CC(C3)C1)C2` (stereo not given) [RIMANTADINE HYDROCHLORIDE] the Activity (Influenza B virus) was “inactive” and the CC50 (MDCK) was 230 µM.

In the case of `CC12CC34CN(C(=N)N)CC35CC1(C)C(C)(C5)C2(C)C4` (stereo not given), the MCC at 72 h [1] is reported as at least 4 µM, the Activity (Influenza B virus) is reported as “inactive” and the CC50 (MDCK) is reported as 15 µM.

For `C1=CC2C3CNCC3C1C1CC21` (stereo not given), the MCC at 72 h [1] was 100 µM, the Activity (Influenza B virus) was “inactive” and the IC50 [2] was 2.92 µM. It also gave a CC50 (MDCK) of 54 µM.

In the case of `C1CC2C3CNCC3C1C1CC21` (stereo not given), the MCC at 72 h [1] is reported as 100 µM, the Activity (Influenza B virus) is reported as “inactive” and the IC50 [2] is reported as 3.38 µM. For the same compound, the CC50 (MDCK) was 49 µM.

With `C1CC2C1C1CCC2C2CNCC12` (stereo not given) the MCC at 72 h [1] was 4 µM, the Activity (Influenza B virus) was “inactive” and the IC50 [2] was 1.24 µM. It also gave a CC50 (MDCK) of 1.9 µM.

For `C1=CC2C3CC3C1C1CN(C3CCNCC3)CC21` (stereo not given), the MCC at 72 h [1] was 100 µM, the Activity (Influenza B virus) was “inactive” and the inhibition [3] was “inactive”. The CC50 (MDCK) was 46 µM.

For `N=C(N)N1CC2C3C=CC(C4C=CC43)C2C1` (stereo not given), the MCC at 72 h [1] was 20 µM, the Activity (Influenza B virus) was “inactive” and the IC50 [2] was 4.93 µM. It also gave a CC50 (MDCK) of 9.4 µM.

With `C1CC(N2CC3C4CCC(C5CC45)C3C2)CCN1` (stereo not given) the MCC at 72 h [1] was 20 µM, the Activity (Influenza B virus) was “inactive” and the inhibition [3] was “inactive”. It also gave a CC50 (MDCK) of 9 µM.

In the case of `C1=CC2C1C1C=CC2C2CNCC12` (stereo not given), the MCC at 72 h [1] is reported as 15 µM, the Activity (Influenza B virus) is reported as “inactive” and the IC50 [2] is reported as 5.54 µM. It also gave a CC50 (MDCK) of 4.9 µM.

For `N=C(N)N1CC2C3CCC(C4CC34)C2C1` (stereo not given), the MCC at 72 h [1] was 100 µM, the Activity (Influenza B virus) was “inactive” and the IC50 [2] was 1.64 µM. The CC50 (MDCK) was 41 µM.
